Source: patent US12421276B2 (priority 2016, dated 2025)
Several values for one entry are separate records, joined by “and”; a condition that tells them apart may be missing. Equal entries are not always repeated. Where two headings read alike, the source gives them in different places.

Legend:
[1] = Plasma stability study, rat plasma; type: in vitro ADME; conditions: Rat plasma, 1 μM, 37° C.
Summary of the method: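 Compounds (1 μM, from 0.3 mM DMSO stock) incubated at 37° C in K2 EDTA plasma, quenched at time points with acetonitrile/methanol/formic acid plus internal standard, and analysed by LC/MS/MS. Disappearance measured relative to 0-min control; t½ derived from elimination rate constant of semi-log % remaining versus time regression.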

[2] = type: in vivo, rat
Summary of the method: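 Male SD rats (n=4/group) dosed PO at 13.2 or 14.2 mg/kg (10 mL/kg) and housed in metabolic cages with daily urine collection. EDTA blood sampled predose to 24 h post-dose, centrifuged at 4 °C to plasma, analysed by LC-MS.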

[3] = Rat, PO, 10 mg/kg equiv., n = 4, analyte: Parent (BASE STRUCTURE)
[4] = Rat, PO, 10 mg/kg equiv., n = 4, analyte: Prodrug
[5] = rat, dosed as prodrug, 10 mg/kg equivalent of Base Structure, analyte Parent (Base Structure), Average
[6] = rat, dosed as prodrug, 10 mg/kg equivalent of Base Structure, analyte Parent (Base Structure), Combined (average ± std. dev.)
[7] = rat, dosed as prodrug, 10 mg/kg equivalent of Base Structure, analyte Parent (Base Structure), individual animals
[8] = rat, dosed as prodrug, 10 mg/kg equivalent of Base Structure, analyte Parent (Base Structure), individual animals, 10 mg/kg
[9] = rat, dosed as prodrug, 10 mg/kg equivalent of Base Structure, analyte Prodrug, Average
[10] = rat, dosed as prodrug, 10 mg/kg equivalent of Base Structure, analyte Prodrug, Combined (average ± std. dev.)
[11] = rat, dosed as prodrug, 10 mg/kg equivalent of Base Structure, analyte Prodrug, individual animals
[12] = rat, dosed as prodrug, 10 mg/kg equivalent of Base Structure, analyte Prodrug, individual animals, 10 mg/kg

## CCCCCC(=O)NC(Cc1ccc(OC(=O)NCCN(C)C)cc1)C(=O)NC(C(=O)NCCCCCC(N)=O)C(C)CC (centres unmarked) [Compound A21]
[1]
  Plasma Stability Half-Life: 1.16 h
  Plasma Stability (% Parent Remaining) 0 min: 100%
  Plasma Stability (% Parent Remaining) 60 min: 61%
  Plasma Stability (% Parent Remaining) 120 min: 34%
  Plasma Stability (% Parent Remaining) 240 min: 9%
[2]; [3]
  AUC0-24: 7.4 ± 0.9 ng·h/mL
  AUC0-inf: 47.8 ± 1 ng·h/mL
  Cmax: 0.6 ± 0.1 ng/mL
  Tmax: 0.9 ± 0.8 h
  half-life: 81.7 ± 5.7 h
[2]; [4]
  AUC0-24: 2.8 ± 1.9 ng·h/mL
  AUC0-inf: 6.46 ng·h/mL
  Cmax: 1.6 ± 0.5 ng/mL
  Tmax: 0.8 ± 0.4 h
  half-life: 1.32 h
[2]; [5]
  AUC 0-inf_obs: 47.78 ng·h/mL
  AUC 0-t: 7.45 ng·h/mL
  AUMC 0-inf_obs: 5777.4305 ng/ml * h^2
  Cl/F_obs: 0.2094 (mg/kg)/(ng/ml)/h
  Cmax: 0.62 ng/mL
  Lambda_z: 0.008507 h⁻¹
  MRT 0-inf_obs: 120.8 h
  Tlag: 0 h
  Tmax: 0.875 h
  Vz/F_obs: 24.65 (mg/kg)/(ng/ml)
  t1/2: 81.6756 h
[2]; [6]
  AUC 0-inf_obs: 47.8 ± 1 ng·h/mL
  AUC 0-t: 7.4 ± 0.9 ng·h/mL
  AUMC 0-inf_obs: 5777.4 ± 551.6 ng/ml * h^2
  Cl/F_obs: 0.2 ± 0 (mg/kg)/(ng/ml)/h
  Cmax: 0.6 ± 0.1 ng/mL
  Lambda_z: 0 ± 0 h⁻¹
  MRT 0-inf_obs: 120.8 ± 9.1 h
  Tlag: 0 ± 0 h
  Tmax: 0.9 ± 0.8 h
  Vz/F_obs: 24.7 ± 1.2 (mg/kg)/(ng/ml)
  t1/2: 81.7 ± 5.7 h
[2]; [7]
  Tlag: 0 h
[2]; [8]
  AUC 0-inf_obs: 48.45 ng·h/mL and 47.1 ng·h/mL
  AUC 0-t: 7.285 ng·h/mL and 8.222 ng·h/mL and 6.27 ng·h/mL and 8.022 ng·h/mL
  AUMC 0-inf_obs: 6167.4557 ng/ml * h^2 and 5387.4053 ng/ml * h^2
  Cl/F_obs: 0.2064 (mg/kg)/(ng/ml)/h and 0.2123 (mg/kg)/(ng/ml)/h
  Cmax: 0.744 ng/mL and 0.604 ng/mL and 0.555 ng/mL and 0.577 ng/mL
  Lambda_z: 0.00809 h⁻¹ and 0.008925 h⁻¹
  MRT 0-inf_obs: 127.3 h and 114.4 h
  Tmax: 0.25 h (2×) and 1 h and 2 h
  Vz/F_obs: 25.51 (mg/kg)/(ng/ml) and 23.79 (mg/kg)/(ng/ml)
  t1/2: 85.68 h and 77.67 h
[2]; [9]
  AUC 0-inf_obs: 6.459 ng·h/mL
  AUC 0-t: 2.846 ng·h/mL
  AUMC 0-inf_obs: 13.69 ng/ml * h^2
  Cl/F_obs: 1.548 (mg/kg)/(ng/ml)/h
  Cmax: 1.615 ng/mL
  Lambda_z: 0.5257 h⁻¹
  MRT 0-inf_obs: 2.119 h
  Tlag: 0 h
  Tmax: 0.8125 h
  Vz/F_obs: 2.945 (mg/kg)/(ng/ml)
  t1/2: 1.319 h
[2]; [10]
  AUC 0-inf_obs: 6.459 ng·h/mL
  AUC 0-t: 2.8 ± 1.9 ng·h/mL
  AUMC 0-inf_obs: 13.69 ng/ml * h^2
  Cl/F_obs: 1.548 (mg/kg)/(ng/ml)/h
  Cmax: 1.6 ± 0.5 ng/mL
  Lambda_z: 0.5257 h⁻¹
  MRT 0-inf_obs: 2.119 h
  Tlag: 0 ± 0 h
  Tmax: 0.8 ± 0.4 h
  Vz/F_obs: 2.945 (mg/kg)/(ng/ml)
  t1/2: 1.319 h
[2]; [11]
  AUC 0-inf_obs: 6.459 ng·h/mL
  AUMC 0-inf_obs: 13.69 ng/ml * h^2
  Cl/F_obs: 1.548 (mg/kg)/(ng/ml)/h
  Lambda_z: 0.5257 h⁻¹
  MRT 0-inf_obs: 2.119 h
  Tlag: 0 h
  Vz/F_obs: 2.945 (mg/kg)/(ng/ml)
  t1/2: 1.319 h
[2]; [12]
  AUC 0-t: 5.619 ng·h/mL and 2.381 ng·h/mL and 1.498 ng·h/mL and 1.885 ng·h/mL
  Cmax: 2.18 ng/mL and 1.89 ng/mL and 1.01 ng/mL and 1.38 ng/mL
  Tmax: 0.25 h and 1 h (3×)

## CCCCCC(=O)NC(Cc1ccc(OC(=O)N2CCN(C)CC2)cc1)C(=O)NC(C(=O)NCCCCCC(N)=O)C(C)CC (centres unmarked) [Compound A20]
[1]
  Plasma Stability Half-Life: 2.617 h
  Plasma Stability (% Parent Remaining) 0 min: 100%
  Plasma Stability (% Parent Remaining) 60 min: 73%
  Plasma Stability (% Parent Remaining) 120 min: 56%
  Plasma Stability (% Parent Remaining) 240 min: 34%
[2]; [3]
  AUC0-24 (ng · h/mL): 0.8 ± 1^ ng · h/mL
  AUC0-inf: 1.61 ng·h/mL
  Cmax: 1.7 ± 1.3 ng/mL
  Tmax (h): 0.3 ± 0^ h
  half-life: 0.17 h
[2]; [4]
  Tmax: 0 h
[2]; [5]
  AUC 0-inf_obs: 1.611 ng·h/mL
  AUC 0-t: 0.8309 ng·h/mL
  AUMC 0-inf_obs: 0.6699 ng/ml * h^2
  Cl/F_obs: 6.207 (mg/kg)/(ng/ml)/h
  Cmax: 1.7125 ng/mL
  Lambda_z: 4.022 h⁻¹
  MRT 0-inf_obs: 0.4158 h
  Tlag: 0 h
  Tmax: 0.25 h
  Vz/F_obs: 1.543 (mg/kg)/(ng/ml)
  t1/2: 0.1723 h
[2]; [6]
  AUC 0-inf_obs: 1.611 ng·h/mL
  AUC 0-t: 0.8 ± 1 ng·h/mL
  AUMC 0-inf_obs: 0.6699 ng/ml * h^2
  Cl/F_obs: 6.207 (mg/kg)/(ng/ml)/h
  Cmax: 1.7 ± 1.3 ng/mL
  Lambda_z: 4.022 h⁻¹
  MRT 0-inf_obs: 0.4158 h
  Tlag: 0 ± 0 h
  Tmax: 0.3 ± 0 h
  Vz/F_obs: 1.543 (mg/kg)/(ng/ml)
  t1/2: 0.1723 h
[2]; [7]
  AUC 0-inf_obs: 1.611 ng·h/mL
  AUMC 0-inf_obs: 0.6699 ng/ml * h^2
  Cl/F_obs: 6.207 (mg/kg)/(ng/ml)/h
  Lambda_z: 4.022 h⁻¹
  MRT 0-inf_obs: 0.4158 h
  Tlag: 0 h
  Tmax: 0.25 h
  Vz/F_obs: 1.543 (mg/kg)/(ng/ml)
  t1/2: 0.1723 h
[2]; [8]
  AUC 0-t: 0.08927 ng·h/mL and 1.5726 ng·h/mL
  Cmax: 0.765 ng/mL and 2.66 ng/mL
[2]; [9]
  AUMC 0-inf_obs: 0 ng/ml * h^2
  Cl/F_obs: 0 (mg/kg)/(ng/ml)/h
  Lambda_z: 0 h⁻¹
  Tlag: 0 h
  Tmax: 0 h
  Vz/F_obs: 0 (mg/kg)/(ng/ml)
[2]; [10]
  AUMC 0-inf_obs: 0 ng/ml * h^2
  Cl/F_obs: 0 (mg/kg)/(ng/ml)/h
  Lambda_z: 0 h⁻¹
  Tlag: 0 h
  Tmax: 0 h
  Vz/F_obs: 0 (mg/kg)/(ng/ml)
[2]; [11]
  AUMC 0-inf_obs: 0 ng/ml * h^2
  Cl/F_obs: 0 (mg/kg)/(ng/ml)/h
  Lambda_z: 0 h⁻¹
  Tlag: 0 h
  Tmax: 0 h
  Vz/F_obs: 0 (mg/kg)/(ng/ml)
